# Test results published in ChEMBL document CHEMBL1147729, “(+)-(2R,5S)-4-[4-cyano-3-(trifluoromethyl)phenyl]-2,5-dimethyl-N-[6-(trifluoromethyl)pyridin-3-yl]piperazine-1-carboxamide (YM580) as an orally potent and peripherally selective nonsteroidal androgen receptor antagonist” (J Med Chem, 2006).
# Key:
# [1] = molecular target: T1, Estrogen receptor (Homo sapiens, UniProt P03372); assay: Inhibition of human ERalpha
# T1 sequence (P03372 whole entry): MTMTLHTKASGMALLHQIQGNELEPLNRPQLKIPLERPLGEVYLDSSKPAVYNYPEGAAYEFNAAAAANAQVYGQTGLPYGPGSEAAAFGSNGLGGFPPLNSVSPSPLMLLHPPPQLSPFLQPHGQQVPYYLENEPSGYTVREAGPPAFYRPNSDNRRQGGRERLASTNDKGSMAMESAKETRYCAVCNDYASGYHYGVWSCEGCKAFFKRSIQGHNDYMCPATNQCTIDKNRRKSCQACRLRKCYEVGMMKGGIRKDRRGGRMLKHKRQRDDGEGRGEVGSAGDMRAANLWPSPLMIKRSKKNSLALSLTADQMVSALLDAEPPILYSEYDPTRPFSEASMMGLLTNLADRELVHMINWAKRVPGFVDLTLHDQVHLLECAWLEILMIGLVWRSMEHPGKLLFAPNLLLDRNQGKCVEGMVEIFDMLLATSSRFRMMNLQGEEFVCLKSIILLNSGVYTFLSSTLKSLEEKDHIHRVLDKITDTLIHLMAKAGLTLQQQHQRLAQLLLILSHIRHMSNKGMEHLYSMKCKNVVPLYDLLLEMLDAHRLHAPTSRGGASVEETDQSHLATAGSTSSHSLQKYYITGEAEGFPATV
# [2] = Oral clearance in rat at 3 mg/kg, po; type: ADME, organism-based; set-up: dose 3 mg/kg, route oral; conditions: in vivo
# [3] = Half life in rat plasma at 3 mg/kg, po; type: ADME, organism-based; set-up: dose 3 mg/kg, route oral
# [4] = tested on: Rattus norvegicus; assay: Effect on ventral prostate weight with reference to control in Wistar rat at 10 mg/kg/day, po; type: functional, Prostate gland; conditions: Rattus norvegicus, Wistar, Prostate gland
# [5] = molecular target: T2, Progesterone receptor (Rattus norvegicus, UniProt Q63449); assay: Inhibition of rat PR
# T2 sequence (Q63449 whole entry): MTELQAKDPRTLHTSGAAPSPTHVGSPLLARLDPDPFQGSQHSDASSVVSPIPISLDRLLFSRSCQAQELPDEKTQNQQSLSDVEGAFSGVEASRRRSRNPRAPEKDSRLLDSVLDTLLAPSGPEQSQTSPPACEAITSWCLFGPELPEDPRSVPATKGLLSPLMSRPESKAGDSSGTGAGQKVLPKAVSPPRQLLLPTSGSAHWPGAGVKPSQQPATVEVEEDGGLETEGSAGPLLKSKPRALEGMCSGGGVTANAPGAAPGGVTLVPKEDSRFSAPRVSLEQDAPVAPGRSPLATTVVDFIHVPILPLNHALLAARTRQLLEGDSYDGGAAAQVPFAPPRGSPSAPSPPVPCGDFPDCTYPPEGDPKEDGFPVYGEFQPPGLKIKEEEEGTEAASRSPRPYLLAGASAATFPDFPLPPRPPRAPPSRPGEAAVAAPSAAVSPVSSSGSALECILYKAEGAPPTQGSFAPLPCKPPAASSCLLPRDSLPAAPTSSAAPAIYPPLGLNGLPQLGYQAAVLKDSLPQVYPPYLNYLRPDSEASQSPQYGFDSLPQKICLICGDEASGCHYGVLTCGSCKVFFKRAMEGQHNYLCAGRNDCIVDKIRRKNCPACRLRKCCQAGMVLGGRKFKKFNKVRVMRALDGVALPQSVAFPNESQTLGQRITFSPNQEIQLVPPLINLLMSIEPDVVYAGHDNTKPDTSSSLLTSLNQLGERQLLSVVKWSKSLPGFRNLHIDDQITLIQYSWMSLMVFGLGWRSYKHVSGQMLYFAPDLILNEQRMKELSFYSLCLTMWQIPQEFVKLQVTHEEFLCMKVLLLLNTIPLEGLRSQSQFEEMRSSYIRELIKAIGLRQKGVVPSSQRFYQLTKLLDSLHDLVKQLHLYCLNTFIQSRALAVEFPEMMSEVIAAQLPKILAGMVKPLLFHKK
# [6] = Cmax in rat hypothalamus at 3 mg/kg, po; type: ADME, organism-based; set-up: dose 3 mg/kg, route oral
# [7] = tested on: Rattus norvegicus; assay: Effect on ventral prostate weight with reference to control in Wistar rat at 30 mg/kg/day, po; type: functional; conditions: Prostate gland
# [8] = Oral clearance in rat ventral prostate at 3 mg/kg, po; type: ADME, organism-based, Prostate gland; set-up: dose 3 mg/kg, route oral
# [9] = AUC (0-72)hrs in rat hypothalamus at 3 mg/kg, po; type: ADME, organism-based; set-up: time < 72 hr, dose 3 mg/kg, route oral
# [10] = molecular target: T3, Glucocorticoid receptor (Homo sapiens, UniProt P04150); assay: Inhibition of human GR
# T3 sequence (P04150 whole entry): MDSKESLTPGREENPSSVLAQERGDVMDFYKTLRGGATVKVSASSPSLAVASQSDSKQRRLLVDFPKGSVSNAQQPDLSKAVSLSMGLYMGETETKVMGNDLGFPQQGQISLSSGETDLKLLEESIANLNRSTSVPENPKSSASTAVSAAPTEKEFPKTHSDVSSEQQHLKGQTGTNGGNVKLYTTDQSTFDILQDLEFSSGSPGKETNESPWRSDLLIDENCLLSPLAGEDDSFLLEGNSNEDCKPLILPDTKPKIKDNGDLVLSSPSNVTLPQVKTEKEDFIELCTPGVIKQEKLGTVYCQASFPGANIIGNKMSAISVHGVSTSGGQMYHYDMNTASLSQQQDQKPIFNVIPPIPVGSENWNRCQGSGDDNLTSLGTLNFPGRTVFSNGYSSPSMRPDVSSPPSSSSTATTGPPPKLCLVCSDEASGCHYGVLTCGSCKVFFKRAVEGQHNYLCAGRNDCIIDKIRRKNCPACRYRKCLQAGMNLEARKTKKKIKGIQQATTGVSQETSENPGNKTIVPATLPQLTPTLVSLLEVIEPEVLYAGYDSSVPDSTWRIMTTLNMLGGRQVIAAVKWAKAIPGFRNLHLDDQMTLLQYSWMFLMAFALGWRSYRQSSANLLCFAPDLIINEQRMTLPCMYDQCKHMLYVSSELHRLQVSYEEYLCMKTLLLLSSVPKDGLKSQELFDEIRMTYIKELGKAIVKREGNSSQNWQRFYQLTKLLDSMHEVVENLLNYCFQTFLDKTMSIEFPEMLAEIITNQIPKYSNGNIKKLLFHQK
# [11] = Cmax in rat ventral prostate at 3 mg/kg, po; type: ADME, organism-based, Prostate gland; set-up: dose 3 mg/kg, route oral
# [12] = AUC (0-72)hrs in rat plasma at 3 mg/kg, po; type: ADME, organism-based; set-up: time < 72 hr, dose 3 mg/kg, route oral
# [13] = Cmax in rat plasma at 3 mg/kg, po; type: ADME, organism-based; set-up: dose 3 mg/kg, route oral
# [14] = AUC (0-72)hrs in rat ventral prostate at 3 mg/kg, po; type: ADME, organism-based, Prostate gland; set-up: time < 72 hr, dose 3 mg/kg, route oral
# [15] = Half life in rat ventral prostate at 3 mg/kg, po; type: ADME, organism-based, Prostate gland; set-up: dose 3 mg/kg, route oral
smiles,measurement,setting,value
C[C@@H]1CN(c2ccc(C#N)c(C(F)(F)F)c2)[C@@H](C)CN1C(=O)Nc1ccc(C(F)(F)F)nc1 (racemic),Ki,[1],> 100 µM
same,CL/F,[2],2.22 mL/min/kg
same,half-life,[3],12.5 h
same,inhibition in vivo at 10 mg/kg/day,[4],67%
same,Ki,[5],3.3 µM
same,Cmax,[6],96 ng/mL
same,ED50,[7],2.2 mg/kg
same,CL/F,[8],1.14 mL/min/kg
same,AUC at 72 h,[9],2580 ng·h/mL
same,Ki,[10],> 100 µM
same,Cmax,[11],1560 ng/mL
same,AUC at 72 h,[12],22000 ng·h/mL
same,Cmax,[13],702 ng/mL
same,AUC at 72 h,[14],43200 ng·h/mL
same,half-life,[15],11.2 h
